Results as given in patent US6596700B2, “Methods of treating hepatitis delta virus infection with β-L-2'-deoxy-nucleosides” (priority 2000, dated 2003).
Where two headings read alike, the source gives them in different places.

Experiments:
[1] = tested on: woodchuck hepatitis virus (WHV); experiment: woodchuck chronic hepatitis model, WHV DNA in serum; assay type: in vivo, woodchucks (Marmota monax); settings: for activity compared with 3TC (lamivudine): 3TC 10 mg/kg/day; for ng WHV-DNA per ml serum: orally once a day at 10 mg/kg; for activity in the in vivo model / level to which viral load is reduced: woodchucks chronically infected with WHV
Protocol: The efficacy of L-dA, L-dT and L-dC against hepadnavirus infection in woodchucks (Marmota monax) chronically infected with woodchuck hepatitis virus (WHV) was determined. This animal model of HBV infection is widely accepted and has proven to be useful for the evaluation of antiviral agents directed against HBV. There were 3 animals per drug group, and 4 animals per control. In group 1, the animals received a vehicle control; group 2 received lamivudine (3TC) (10 mg/kg/day); groups 3-6 received L-dA (0.01, 0.1, 1.0, 10 mg/kg/day, respectively); groups 7-10 received L-dT (0.01, 0.1, 1.0, 10 mg/kg/day, respectively); and groups 11-14 received L-dC (0.01, 0.1, 1.0, 10 mg/kg/day). […] Assessment of the activity and toxicity was based on the reduction of WHV DNA in serum: dot-blot, quantative PCR.

CFU-GM [2] = experiment: human bone marrow clonogenic assay, CFU-GM; settings: effect on cell growth
Hep G-2 (2.2.15) cells = experiment: cytotoxicity in Hep G-2 (2.2.15) cells; settings: read-out: Cytotoxicity IC50
BFU-E = experiment: human bone marrow clonogenic assay, BFU-E; assay type: cell-based
hepatitis B = settings: for IC50: single agent, hepatitis B replication in 2.2.15 cells
hepatitis B virus = experiment: anti-hepatitis B virus activity in transfected Hep G-2 (2.2.15) cells; assay type: cell-based
HDV [3] = settings: in vivo, cited from earlier work
HDV [4] = settings: cited from earlier work
HDV [5] = settings: patients with chronic delta hepatitis; cited from earlier work
[6] = tested on: hepatitis B surface antigen; settings: in vivo; cited from earlier work
HDV [7] = settings: chronically infected animals; cited from earlier work
CFU-GM [8] = tested on: CFU-GM
[9] = day 0, limit of detection 1 ng/ml
[10] = extracellular DNA, read-out: HBV virions EC50
[11] = replicative intermediates (intracellular DNA), read-out: HBV Ri EC50

Nc1ncnc2c1ncn2[C@@H]1C[C@@H](O)[C@H](CO)O1 [β-L-dA, 2′-Deoxy-β-L-adenosine]
activity compared with 3TC (lamivudine) [1]: more active than 3TC | ng WHV-DNA per ml serum [1, 9]: 436 ng/mL | ng WHV-DNA per ml serum ([1]; day 1): 369 ng/mL | ng WHV-DNA per ml serum ([1]; day 3): 140 ng/mL | ng WHV-DNA per ml serum ([1]; day 7): 102 ng/mL | ng WHV-DNA per ml serum ([1]; day 14): 74 ng/mL | activity in the in vivo model [1]: highly active | level to which viral load is reduced [1]: nearly undetectable | CFU-GM (CFU-GM [2]): >10 µM | IC50 (Hep G-2 (2.2.15) cells): > 200000 nM | BFU-E (BFU-E; effect on cell growth, human bone marrow clonogenic assay): >10 µM | % Inhibition (hepatitis B; single agent 0.005 μM): 1% | % Inhibition (hepatitis B; single agent 0.05 μM): 24% | % Inhibition (hepatitis B; single agent 0.5 μM): 90% | IC50 (hepatitis B): 90 nM | EC50 (hepatitis B virus; [10]): 100 nM | EC50 (hepatitis B virus; [11]): 100 nM

NC(=O)c1ncn([C@@H]2O[C@H](CO)[C@@H](O)[C@H]2O)n1 [Ribavirin]
side-effects (HDV [3]): severe side-effects | virological or biochemical parameters (HDV [3]): did not significantly affect virological or biochemical parameters

Nc1ccn([C@@H]2C[C@@H](O)[C@H](CO)O2)c(=O)n1 [β-L-dC, 2′-Deoxy-β-L-cytidine]
activity compared with 3TC (lamivudine) [1]: more active than 3TC | ng WHV-DNA per ml serum [1, 9]: 426 ng/mL | ng WHV-DNA per ml serum ([1]; day 1): 123 ng/mL | ng WHV-DNA per ml serum ([1]; day 3): 62 ng/mL | ng WHV-DNA per ml serum ([1]; day 7): 46 ng/mL | ng WHV-DNA per ml serum ([1]; day 14): 20 ng/mL | activity in the in vivo model [1]: highly active | level to which viral load is reduced [1]: nearly undetectable | CFU-GM (CFU-GM [2]): >10 µM | IC50 (Hep G-2 (2.2.15) cells): > 200000 nM | BFU-E (BFU-E): >10 µM | % Inhibition (hepatitis B; single agent 0.005 μM): 10% | % Inhibition (hepatitis B; single agent 0.05 μM): 40% | % Inhibition (hepatitis B; single agent 0.5 μM): 95% | IC50 (hepatitis B): 60 nM | EC50 (hepatitis B virus; [10]): 50 nM | EC50 (hepatitis B virus; [11]): 50 nM

Nc1nc2c(ncn2COCCO)c(=O)[nH]1 [Acyclovir]
HDV replication (HDV [4]; in vitro): enhances HDV replication in vitro

Nc1ccn([C@@H]2CS[C@H](CO)O2)c(=O)n1 [Lamuvidine, β-L-2′,3′-dideoxy-3′-thiacytidine]
disease activity and HDV-RNA levels (HDV [5]): does not improve disease activity or lower HDV-RNA levels

Cc1cn([C@H]2O[C@@H](CO)[C@H](O)[C@H]2F)c(=O)[nH]c1=O [L-FMAU, 2′-fluoro-5-methyl-beta-L-arabinofuranosyluridine]
level of hepatitis B surface antigen [6]: significantly reduces the level of hepatitis B surface antigen | inhibition of HDV (HDV [7]): potent inhibitor of HDV

Cc1cn([C@@H]2C[C@@H](O)[C@H](CO)O2)c(=O)[nH]c1=O [β-L-dT, 2′-Deoxy-β-L-thymidine]
activity compared with 3TC (lamivudine) [1]: more active than 3TC | ng WHV-DNA per ml serum [1, 9]: 423 ng/mL | ng WHV-DNA per ml serum ([1]; day 1): 45 ng/mL | ng WHV-DNA per ml serum ([1]; day 3): 14 ng/mL | ng WHV-DNA per ml serum ([1]; day 7): 6 ng/mL | ng WHV-DNA per ml serum ([1]; day 14): 1 ng/mL | viral rebound after withdrawal ([1]; post-treatment): viral rebound is not detected for at least two weeks | activity in the in vivo model [1]: highly active | level to which viral load is reduced [1]: undetectable | IC50 (Hep G-2 (2.2.15) cells): > 200000 nM | CFU-GM (CFU-GM [8]): >10 µM | BFU-E (BFU-E): >10 µM | EC50 (hepatitis B virus; [10]): 50 nM | EC50 (hepatitis B virus; [11]): 50 nM

O=c1[nH]cnc2c1ncn2[C@@H]1C[C@@H](O)[C@H](CO)O1 [β-L-dI, 2′-deoxy-β-L-inosine]
IC50 (Hep G-2 (2.2.15) cells): > 200000 nM | EC50 (hepatitis B virus; [10]): 1000 nM | EC50 (hepatitis B virus; [11]): 1000 nM

Cc1ccc(C(=O)Nc2ccc(S(=O)(=O)O)c3cc(S(=O)(=O)O)cc(S(=O)(=O)O)c23)cc1NC(=O)c1cccc(NC(=O)Nc2cccc(C(=O)Nc3cc(C(=O)Nc4ccc(S(=O)(=O)O)c5cc(S(=O)(=O)O)cc(S(=O)(=O)O)c45)ccc3C)c2)c1 [suramin]
entry of the virion into hepatocytes (HDV [4]): blocks the entry of the virion into hepatocytes | toxicity (HDV [3]; human): too toxic to be acceptable for long term use in humans

O=c1ccn([C@@H]2C[C@@H](O)[C@H](CO)O2)c(=O)[nH]1 [β-L-dU, β-L-2′-deoxyuridine]
IC50 (Hep G-2 (2.2.15) cells): > 200000 nM | CFU-GM (CFU-GM [8]): >10 µM | BFU-E (BFU-E): >10 µM | EC50 (hepatitis B virus; [10]): 5000 nM | EC50 (hepatitis B virus; [11]): 5000 nM
